Results from patent US20090238799A1, “Conditionally-Immortalised Pancreatic Cells” (priority 2005, published 2009).

Columns and labels:
[1] = system: Telomerase Reverse Transcriptase; assay: Quantitative PCR of c-myc gene target induction in c-mycERTAM pancreatic cells; format: cell-based, human; conditions: pancreatic cells with c-mycERTAM, FIG. 4
Description: For the PCR of the c-myc-ER and insulin, the titanium taq PCR kit (Clontech laboratories) was used, see Table 2 for the primers used. The PCR reaction conditions were standard. The PCR machine used was GeneAmp PCR system 2700. For analysis, 15 μl of the PCR product was mixed with 5 μl 6× loading dye solution (MBI R0611) and loaded to a gel. A 100 bp DNA ladder (MBI SM0241), 6 μl, containing 3 μg DNA was also loaded. The gel was a 2% agarose gel consisting of: TAE buffer (Invitrogen 15558-034), agarose 2%, ethidium bromide, 267 μg/ml. The gel was run with an electrophoresis power supply E835 (Consort) in a tray HU13 (Jencons) and finally scanned with Fluor-S multimager (Biorad) and analysed with the software Quantity One (Biorad). For quantitative PCR, total RNA is extracted from cell pellets using Trizol (Invitrogen) and RNeasy (Qiagen) spin-columns, prior to reverse-transcription with Superscript II (Invitrogen) to synthesize the first strand of cDNA, which can be used as a template in quantitative PCR. Each gene transcript is detected with a sequence-specific primer-probe combination which accumulates a fluorescent signal during each PCR cycle, detected using a Lightcycler 480 instrument (Roche); the transcription of each gene is normalized against loading-level by assessing a number of house-keeping genes, and expressed as a proportion of a calibrator sample.

[2] = system: cells containing the cmyERTam construct; assay: Proliferation of cells containing the cmyERTam construct; format: cell-based, human; conditions: removal promotes differentiation
Description: Before use, the following growth factors (GF) were added to HPM: 20 ng/ml epidermal growth factor (EGF) and 50 nM Gastrin I. After infection the pancreas cells were cultured in the presence of a supplement: 100 nM 4-Hydroxytamoxifen (4OHT).
Pancreas cells or preselected pancreas cell aggregates were transferred on fibronectin coated or uncoated vessels. Pancreatic cells were infected with virus supernatant and 4-8 μg/ml hexadimethrine bromide. After 8-16 hours of infection, fresh HPM was added and the infection cycle was repeated the next day. The infection was done in 10 cm Petri dishes with cell confluency ranging from 40% to 70%. After infection 4OHT was added to the medium. After 2 days from completed infection the cells were passaged for expansion and/or selection.

## 4-hydroxytamoxifen [4-OHT]
[1]
  Telomerase Reverse Transcriptase (hTERT) induction: induction
[2]
  effect of addition on proliferation: promotes proliferation
